Drawing on patent publication US10508085B2, “Compounds and methods for IDO and TDO modulation, and indications therefor” (Plexxikon Inc., priority 2016, dated 2019), this text covers IC50 for 22 molecules.

The structures appear in SMILES notation. Like-named read-outs stand apart in the source and are kept apart here.

Assay [1] has as its target T1, Human Tryptophan 2,3-dioxygenase (TDO) (Homo sapiens, UniProt P48775).
T1 construct: His tag (N); made in house; host or cells: E. coli
Briefly: Human TDO enzymatic assay (kynurenine level). The assay is classed as biochemical. In outline: (§1)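 Reactions were stopped with TCA, converting N-formylkynurenine to kynurenine for quantitation, with IC50 by nonlinear regression. IDO: 6 nM enzyme, 10 μM L-Trp, 20 min RT. TDO: 1 nM enzyme, 350 μM L-Trp, 70 min RT, both in pH 6.5 buffer.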

Assay [2] deals with T2, human TDO (TDO-expressing HEK293 cells) (Homo sapiens, UniProt P48775).
T2 construct: expressed in transfected cells
Briefly: Cell based kynurenine assay, TDO-expressing HEK293 cell clones. The method in brief:
(§2)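 Kynurenine in culture supernatant read after 24 h compound exposure of HEK293 cells stably expressing human IDO1 or TDO. IC50 from nonlinear regression of % inhibition relative to 0.2% DMSO cell (high) and media-only (low) controls.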

Assay [3] has as its target T3, Human Indoleamine 2,3-dioxygenase (IDO) (Homo sapiens, UniProt P14902).
T3 construct: His tag (N); made in house; host or cells: E. coli
Briefly: Human IDO enzymatic assay (kynurenine level). The assay is classed as biochemical. In outline:
as §1

Assay [4] deals with T4, human IDO (IDO1-expressing HEK293 cells) (Homo sapiens, UniProt P14902).
T4 construct: expressed in transfected cells
Briefly: Cell based kynurenine assay, IDO1-expressing HEK293 cell clones. The method in brief: as §2

[5] abbreviates: 1 nM TDO, 350 μM L-Trp, geometric mean, read-out: TDO GMean: IC50 (μM) (Biochemical Assay).
Setting [6] is: TDO-expressing HEK293 cells, 24 hours incubation, geometric mean, read-out: HEK293 TDO Kynurenine GMean IC50 (μM) (Cellular Assay).
The mark [7] stands for this setting: 6 nM IDO, 10 μM L-Trp, geometric mean, read-out: IDO1 GMean: IC50 (μM) (Biochemical Assay).
[8] abbreviates: IDO1-expressing HEK293 cells, 24 hours incubation, geometric mean, read-out: HEK293 IDO1 Kynurenine GMean IC50 (μM) (Cellular Assay).
Where [9] appears, read: TDO-expressing HEK293 cells, 24 hours, geometric mean, read-out: HEK293 TDO Kynurenine GMean IC50 (μM) (Cellular Assay).
Where [10] appears, read: IDO1-expressing HEK293 cells, 24 hours, geometric mean, read-out: HEK293 IDO1 Kynurenine GMean IC50 (μM) (Cellular Assay).

T3 sequence (P14902 whole entry): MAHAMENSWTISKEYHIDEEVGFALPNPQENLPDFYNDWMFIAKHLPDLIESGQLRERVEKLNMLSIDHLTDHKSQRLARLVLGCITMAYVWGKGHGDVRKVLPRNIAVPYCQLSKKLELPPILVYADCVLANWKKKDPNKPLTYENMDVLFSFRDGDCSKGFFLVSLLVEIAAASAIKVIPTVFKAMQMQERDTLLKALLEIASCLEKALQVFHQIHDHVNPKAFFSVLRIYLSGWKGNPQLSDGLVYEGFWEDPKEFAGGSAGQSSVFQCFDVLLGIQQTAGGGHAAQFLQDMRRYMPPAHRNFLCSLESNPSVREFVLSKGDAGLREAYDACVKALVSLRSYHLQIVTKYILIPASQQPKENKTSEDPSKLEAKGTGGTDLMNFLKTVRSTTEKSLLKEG
T4 sequence (P14902 whole entry): as above
T1 sequence (P48775 whole entry): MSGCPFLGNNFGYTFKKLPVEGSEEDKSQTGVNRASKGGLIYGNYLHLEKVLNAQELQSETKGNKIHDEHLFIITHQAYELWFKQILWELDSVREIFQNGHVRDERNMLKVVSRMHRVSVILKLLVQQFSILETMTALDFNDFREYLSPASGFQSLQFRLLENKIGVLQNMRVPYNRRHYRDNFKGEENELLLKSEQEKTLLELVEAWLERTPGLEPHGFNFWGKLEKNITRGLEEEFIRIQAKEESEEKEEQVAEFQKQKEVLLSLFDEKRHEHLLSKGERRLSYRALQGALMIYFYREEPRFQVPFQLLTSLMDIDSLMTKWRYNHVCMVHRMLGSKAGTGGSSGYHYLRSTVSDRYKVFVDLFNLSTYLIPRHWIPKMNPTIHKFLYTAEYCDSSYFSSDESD
T2 sequence (P48775 whole entry): as above

Turning to `CC(C)(C1CCN(C(=O)Nc2ccccc2F)CC1)C(O)c1cc(Cl)cc2cn[nH]c12` (stereo not shown) [Compound P-0178, 4-(1-(5-chloro-1H-indazol-7-yl)-1-hydroxy-2-methylpropan-2-yl)-N-(2-fluorophenyl)piperidine-1-carboxamide], the IC50 in assay [1] (setting [5]), in assay [2] (setting [6]), in assay [3] (setting [7]) and in assay [4] (setting [8]) was 0.0001 to 10 µM throughout.

With `CC(C)(C1CCN(C(N)=O)CC1)C(O)c1cc(Cl)cc2cn[nH]c12` (stereo not shown) [Compound P-0325, 4-(1-(5-chloro-1H-indazol-7-yl)-1-hydroxy-2-methylpropan-2-yl)piperidine-1-carboxamide], the IC50 in assay [1] (setting [5]), in assay [2] (setting [6]), in assay [3] (setting [7]) and in assay [4] (setting [8]) was 0.0001 to 10 µM in each case.

Regarding `OC(c1cc(Cl)c(F)c2cn[nH]c12)C(F)(F)C1CCOCC1` (stereo not shown) [Compound P-0218, 1-(5-chloro-4-fluoro-1H-indazol-7-yl)-2,2-difluoro-2-(tetrahydro-2H-pyran-4-yl)ethan-1-ol], the IC50 in assay [1] (setting [5]), in assay [2] (setting [6]), in assay [3] (setting [7]) and in assay [4] (setting [8]) was 0.0001 to 10 µM throughout.

Take `CC(C)(C1CCN(C(=O)NCC(F)(F)F)CC1)[C@H](O)c1c(F)c(Cl)cc2cn[nH]c12` [Compound P-0511, (S)-4-(1-(5-chloro-6-fluoro-1H-indazol-7-yl)-1-hydroxy-2-methylpropan-2-yl)-N-(2,2,2-trifluoroethyl) piperidine-1-carboxamide]: the IC50 in assay [1] (setting [5]), in assay [2] (setting [9]), in assay [3] (setting [7]) and in assay [4] (setting [10]) was 0.0001 to 10 µM in each case.

For the molecule `CC(C)(C1CCN(C(=O)NCCO)CC1)[C@H](O)c1cc(Cl)cc2cn[nH]c12` [Compound P-0499, (S)-4-(1-(5-chloro-1H-indazol-7-yl)-1-hydroxy-2-methylpropan-2-yl)-N-(2-hydroxyethyl)piperidine-1-carboxamide], the IC50 in assay [1] (setting [5]), in assay [2] (setting [9]), in assay [3] (setting [7]) and in assay [4] (setting [10]) was 0.0001 to 10 µM throughout.

Regarding `CC(C)(C1CCN(C(=O)CC2CCOCC2)CC1)C(O)c1cc(Cl)cc2cn[nH]c12` (stereo not shown) [Compound P-0443, 1-(4-(1-(5-chloro-1H-indazol-7-yl)-1-hydroxy-2-methylpropan-2-yl)piperidin-1-yl)-2-(tetrahydro-2H-pyran-4-yl)ethan-1-one], the IC50 in assay [1] (setting [5]), in assay [2] (setting [9]), in assay [3] (setting [7]) and in assay [4] (setting [10]) was 0.0001 to 10 µM throughout.

As to `COC12CCC(C(O)c3cc(Cl)cc4cn[nH]c34)(CC1)CC2` (stereo not shown) [drawing 812], the IC50 in assay [1] (biochemical assay, comparative examples, 4,6 versus 5,7 indazole, read-out: TDO) amounted to 1.18 µM; in assay [2] (cellular assay, HEK293, 24 hours, comparative examples, read-out: hTDO), 2.63 µM; in assay [3] (biochemical assay, comparative examples, 4,6 versus 5,7 indazole, read-out: IDO1), 0.11 µM; in assay [4] (cellular assay, HEK293, 24 hours, comparative examples, read-out: hIDO1), 0.08 µM.

For `CC(C)(C1CCN(C(=O)CN2CCS(=O)(=O)CC2)CC1)C(O)c1cc(Cl)cc2cn[nH]c12` (stereo not shown) [Compound P-0487, 1-(4-(1-(5-chloro-1H-indazol-7-yl)-1-hydroxy-2-methylpropan-2-yl)piperidin-1-yl)-2-(1,1-dioxidothiomorpholino) ethan-1-one], the IC50 in assay [1] (setting [5]), in assay [2] (setting [9]), in assay [3] (setting [7]) and in assay [4] (setting [10]) was 0.0001 to 10 µM each time.

For the molecule `OC(c1cc(Cl)cc2[nH]ncc12)C12CCC(CC1)CC2` (stereo not shown) [Compound P-0146, bicyclo[2.2.2]octan-1-yl(6-chloro-1H-indazol-4-yl)methanol], the IC50 in assay [1] (setting [5]) is 0.0001 to 10 µM; in assay [2] (setting [6]), 0.0001 to 10 µM; in assay [3] (setting [7]) it was 0.0001 to 10 µM; in assay [4] (setting [8]), more than 10 µM.

Turning to `CC(C)(C1CCOCC1)C(O)c1cc(Cl)cc2cn[nH]c12` (stereo not shown) [Compound P-0191, 1-(5-chloro-1H-indazol-7-yl)-2-methyl-2-(tetrahydro-2H-pyran-4-yl)propan-1-ol], the IC50 in assay [1] (setting [5]), in assay [2] (setting [6]), in assay [3] (setting [7]) and in assay [4] (setting [8]) was 0.0001 to 10 µM in each case.

With `CCCC1(C(O)c2cc(Cl)cc3cn[nH]c23)CCC1` (stereo not shown) [Compound P-0121, (5-chloro-1H-indazol-7-yl)(1-propylcyclobutyl)methanol], the IC50 in assay [1] (setting [5]), in assay [2] (setting [6]), in assay [3] (setting [7]) and in assay [4] (setting [8]) was 0.0001 to 10 µM in each case.

Take `Cc1ccc2cn[nH]c2c1C(O)C1(C(F)(F)F)CCCC1` (stereo not shown) [Compound P-0049, (6-methyl-1H-indazol-7-yl)(1-(trifluoromethyl)cyclopentyl)methanol]: the IC50 in assay [1] (setting [5]), in assay [2] (setting [6]), in assay [3] (setting [7]) and in assay [4] (setting [8]) was 0.0001 to 10 µM each time.

`OC1(c2cc(Cl)cc3cn[nH]c23)CC(c2ccccc2)C1` (stereo not shown) [Compound P-0201, 1-(5-chloro-1H-indazol-7-yl)-3-phenylcyclobutan-1-ol]: the IC50 was 0.0001 to 10 µM in assay [1] (setting [5]), more than 10 µM in assay [2] (setting [6]), 0.0001 to 10 µM in assay [3] (setting [7]) and more than 10 µM in assay [4] (setting [8]).

Take `OC(c1c(F)c(Cl)cc2cn[nH]c12)C(F)(F)C1CCOCC1` (stereo not shown) [Compound P-0262, 1-(5-chloro-6-fluoro-1H-indazol-7-yl)-2,2-difluoro-2-(tetrahydro-2H-pyran-4-yl)ethan-1-ol]: the IC50 in assay [1] (setting [5]), in assay [2] (setting [6]), in assay [3] (setting [7]) and in assay [4] (setting [8]) was 0.0001 to 10 µM in each case.

For `CNC(=O)N1CCC(C2(C(O)c3cc(Cl)cc4cn[nH]c34)CC2)CC1` (stereo not shown) [Compound P-0134, 4-(1-((5-chloro-1H-indazol-7-yl)(hydroxy)methyl)cyclopropyl)-N-methylpiperidine-1-carboxamide], the IC50 in assay [1] (setting [5]), in assay [2] (setting [6]), in assay [3] (setting [7]) and in assay [4] (setting [8]) was 0.0001 to 10 µM each time.

Consider `COc1ccccc1NC(=O)N1CCC(C(C)(C)C(O)c2cc(Cl)cc3cn[nH]c23)CC1` (stereo not shown) [Compound P-0179, 4-(1-(5-chloro-1H-indazol-7-yl)-1-hydroxy-2-methylpropan-2-yl)-N-(2-methoxyphenyl)piperidine-1-carboxamide], for which the IC50 in assay [1] (setting [5]), in assay [2] (setting [6]), in assay [3] (setting [7]) and in assay [4] (setting [8]) was 0.0001 to 10 µM each time.

Take `OC(c1cccc2cncn12)C1CCCCCCC1` (stereo not shown) [Compound P-0063]: the IC50 is 0.0001 to 10 µM in assay [1] (setting [5]), more than 10 µM in assay [2] (setting [6]), 0.0001 to 10 µM in assay [3] (setting [7]) and more than 10 µM in assay [4] (setting [8]).

With `CC(C)(C1CCN(C(=O)NCC2CC2)CC1)C(O)c1cc(Cl)cc2cn[nH]c12` (stereo not shown) [Compound P-0473, 4-(1-(5-chloro-1H-indazol-7-yl)-1-hydroxy-2-methylpropan-2-yl)-N-(cyclopropylmethyl) piperidine-1-carboxamide], the IC50 in assay [1] (setting [5]), in assay [2] (setting [9]), in assay [3] (setting [7]) and in assay [4] (setting [10]) was 0.0001 to 10 µM in each case.

For the molecule `OC(CC1C2CCC1CNC2)c1cc(Cl)cc2cn[nH]c12` (stereo not shown) [Compound P-0274, 2-(3-azabicyclo[3.2.1]octan-8-yl)-1-(5-chloro-1H-indazol-7-yl)ethan-1-ol], the IC50 is 10 to 100 µM in assay [1] (setting [5]), more than 10 µM in assay [2] (setting [6]), 10 to 100 µM in assay [3] (setting [7]) and more than 10 µM in assay [4] (setting [8]).

Consider `CC(C)(C1CCN(C(=O)Nc2ccccc2C#N)CC1)C(O)c1cc(Cl)cc2cn[nH]c12` (stereo not shown) [Compound P-0180, 4-(1-(5-chloro-1H-indazol-7-yl)-1-hydroxy-2-methylpropan-2-yl)-N-(2-cyanophenyl)piperidine-1-carboxamide], for which the IC50 in assay [1] (setting [5]), in assay [2] (setting [6]), in assay [3] (setting [7]) and in assay [4] (setting [8]) was 0.0001 to 10 µM in each case.

Take `O=C(CC1CCOCC1)N1CCC(C(F)(F)C(O)c2cc(Cl)cc3cn[nH]c23)CC1` (stereo not shown) [Compound P-0480, 1-(4-(2-(5-chloro-1H-indazol-7-yl)-1,1-difluoro-2-hydroxyethyl)piperidin-1-yl)-2-(tetrahydro-2H-pyran-4-yl)ethan-1-one]: the IC50 in assay [1] (setting [5]), in assay [2] (setting [9]), in assay [3] (setting [7]) and in assay [4] (setting [10]) was 0.0001 to 10 µM throughout.

On to `CC(=O)N1CC2CCC(C1)C2CC(O)c1cc(Cl)cc2cn[nH]c12` (stereo not shown) [Compound P-0281, 1-(8-(2-(5-chloro-1H-indazol-7-yl)-2-hydroxyethyl)-3-azabicyclo[3.2.1]octan-3-yl)ethan-1-one], for which the IC50 in assay [1] (setting [5]), in assay [2] (setting [6]), in assay [3] (setting [7]) and in assay [4] (setting [8]) was 0.0001 to 10 µM in each case.
